According to patent US6696484B2, “Method and compositions for regulation of 5-alpha reductase activity” (University of Chicago Office of Technology and Intellectual …, priority 1997, dated 2004):
“And” between values parts separate entries of the source, which are not always exact repeats. Equal values may be shown once.

Test system: 5α-reductase
Test: Cell-free 5α-reductase assay, isozyme not given
Type: biochemical, human
Conditions: isozyme not stated

Row | SMILES | IC50 [µM]
1 | O=C1c2ccccc2C(=O)c2ccccc21 [Anthraquinone] | > 100
2 | O=C(/C=C/c1ccc(O)c(O)c1)OCCc1ccccc1 [Caffeic acid phenethyl ester] | 25
3 | O=c1oc2c(O)c(O)cc3c(=O)oc4c(O)c(O)cc1c4c23 [Ellagic acid] | > 100
4 | O=c1ccc2cc(O)c(O)cc2o1 [Esculetin, 6,7-dihydroxycoumarin] | > 100
5 | COc1cc2ccc(=O)oc2c(O)c1O [Fraxetin, 7,8-dihydroxy-6-methoxycoumarin] | > 100

Test system: hamster flank organ
Test: Testosterone-stimulated growth of the pigmented macules of hamster flank organs;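 also: prepubertal Syrian golden hamsters castrated at 4 weeks, ethanol vehicle on one flank organ, macule long and short axes gauged by caliper 1 day after final dose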
Type: in vivo, Syrian golden hamsters
Conditions: 0.5 μg testosterone + 1 mg compound topically daily, 18 days

Row | SMILES | Inhibition (percent decrease in macule area vs androgen-treated macules) [%]
6 | COc1cc(/C=C/C(=O)CC(=O)/C=C/c2ccc(O)c(OC)c2)ccc1O [Curcumin] | 87
7 | CCCC/C=C\CCCCCCCC(=O)O[C@@H]1Cc2c(O)cc(O)cc2O[C@@H]1c1cc(O)c(O)c(O)c1 [EGC-myristoleate, EGC-3-myristoleate] | 71
8 | CCCCC/C=C\C/C=C\C/C=C\CCCCC(=O)O[C@@H]1Cc2c(O)cc(O)cc2O[C@@H]1c1cc(O)c(O)c(O)c1 [EGC-γ-linoleneate acid, EGC-γ-linoleneate] | 68
9 | CCCCC/C=C\C/C=C\C/C=C\CCCCC(=O)O [Gamma-Linolenic Acid, Gamma-Linolenic Acid C18:3 CIS 6.9,12] | 82
10 | CCCC/C=C\CCCCCCCC(=O)O [myristoleic acid] | 73

Same assay, conditions: 0.5 μg testosterone + 1 mg compound topically daily, 18 days, castrated male hamsters; mean±SEM

Row | SMILES | Pigmented macule area [mm^2]
11 | COc1cc(/C=C/C(=O)CC(=O)/C=C/c2ccc(O)c(OC)c2)ccc1O [Curcumin] | 2.40 ± 0.65
12 | CCCC/C=C\CCCCCCCC(=O)O[C@@H]1Cc2c(O)cc(O)cc2O[C@@H]1c1cc(O)c(O)c(O)c1 [EGC-myristoleate, EGC-3-myristoleate] | 5.00 ± 0.42
13 | CCCCC/C=C\C/C=C\C/C=C\CCCCC(=O)O[C@@H]1Cc2c(O)cc(O)cc2O[C@@H]1c1cc(O)c(O)c(O)c1 [EGC-γ-linoleneate acid, EGC-γ-linoleneate] | 5.50 ± 0.56
14 | CCCCC/C=C\C/C=C\C/C=C\CCCCC(=O)O [Gamma-Linolenic Acid, Gamma-Linolenic Acid C18:3 CIS 6.9,12] | 3.15 ± 0.42
15 | CCCC/C=C\CCCCCCCC(=O)O [myristoleic acid] | 4.63 ± 0.66

Same assay, conditions: 0.5 μg testosterone + 1 mg compound topically daily, 18 days; listed as EGC-3 ester of MA

Row | SMILES | Inhibition (percent decrease in macule area vs androgen-treated macules)
16 | CCCC/C=C\CCCCCCCC(=O)O[C@@H]1Cc2c(O)cc(O)cc2O[C@@H]1c1cc(O)c(O)c(O)c1 [EGC-myristoleate, EGC-3-myristoleate] | about 70%

Same assay, conditions: 0.5 μg testosterone + 1 mg compound topically daily, 18 days; listed as EGC-3 ester of γ-LA

Row | SMILES | Inhibition (percent decrease in macule area vs androgen-treated macules)
17 | CCCCC/C=C\C/C=C\C/C=C\CCCCC(=O)O[C@@H]1Cc2c(O)cc(O)cc2O[C@@H]1c1cc(O)c(O)c(O)c1 [EGC-γ-linoleneate acid, EGC-γ-linoleneate] | about 70%

Test system: hamster flank organ
Test: DHT-stimulated growth of the pigmented macules of hamster flank organs
Type: in vivo, Syrian golden hamsters
Conditions: 0.5 μg DHT + 1 mg compound topically daily, 18 days
Procedure: Prepubertal male Syrian golden hamsters, castrated at 4 weeks of age, were obtained from Harlan Sprague-Dawley Co. (Madison, Wis.). Bilateral orchiectomy was performed under anesthesia. The hamsters were housed individually in plastic cages and had free access to Purina rodent chow and water, and were maintained on a 12-h light/12-h dark cycle. Hamsters were used 1-2 weeks after castration and were divided into groups of 4-6 or 9-11 animals. Hair on the lower back of each animal was shaved weekly with an electric hair clipper to expose the flank organs. A treatment solution (5 μl with ethanol as vehicle) was applied topically to the flank organ once a day using a Pipetteman and a polypropylene disposable tip. The treatment solution contained either (a) ethanol alone, (b) an androgen (testosterone or DHT), (c) a test compound, or (d) a combination of an androgen and a test compound. For each hamster, one flank organ was treated while the other organ was not treated. The surface of the flank organ was wiped with an alcohol pad to remove residual compound before each treatment. At the end of each experiment (18 days), animals were killed by CO2 asphyxiation or an intraperitoneal injection of […]. Flank organs from both the treated and untreated sides were examined 1 day after the last treatment by the methods described below. The body weight of each animal was recorded before and after treatment. Experiments were repeated at least twice to assure reproducibility. The “Guide for the care and use of laboratory animals” (NIH publication no. 85-28, revised 1988) and the regulations of the U.S. Department of Agriculture were followed throughout the experiments.
In this study, the growth of the flank organ was determined by measuring the length of the long axis and the short axis of the pigmented spot (pigmented macule) with a caliper with a digital display (Digimatic; Mitutoyo Corporation, Japan). The surface area (in millimeters squared) of the spot was calculated as the product of the long axis and the short axis (Gomez and Frost 1975). The areas of the pigmented spots after treatment with ethanol alone or with test compound (in ethanol) alone were less than 10% of the areas of the pigmented spots after treatment with testosterone alone. These values were deducted from the experimental values and are compared in Tables 8-10. For each experiment, the means and standard error of the means (SEM) of the areas of the untreated and treated macules were computed separately for each treatment group. Within each experiment, an overall F-test (one way ANOVA) was used to test the null hypothesis that the mean sizes of the treated macules were the same in all groups, and Dunnett's multiple range test was used to examine differences between the treatment groups (i.e., green tea catechin+androgen, fatty acid+androgen, EGC derivative+androgen, or fatty acid derivative+androgen) and the control group (androgen treatment only). The Mann-Whitney test was used to examine differences between DHT-treated and the DHT and EGCG-treated groups. P-values <0.05 were taken as indicating statistical significance in all tests (Hochberg and Tamhane 1987).
Each group comprised four to six castrated male hamsters. At the end of the treatment period, the areas of the pigmented macules were determined and are presented as means±SEM in Table 8.
Each group comprised four to six castrated male hamsters. At the end of the treatment period, the areas of the pigmented macules were determined and are expressed as means±SEM as shown in Table 10.

Row | SMILES | Inhibition (percent decrease in macule area vs androgen-treated macules) [%]
18 | COc1cc(/C=C/C(=O)CC(=O)/C=C/c2ccc(O)c(OC)c2)ccc1O [Curcumin] | 31

Same assay, conditions: 0.5 μg DHT + 1 mg compound topically daily, 18 days; mean±SEM

Row | SMILES | Pigmented macule area [mm^2]
19 | COc1cc(/C=C/C(=O)CC(=O)/C=C/c2ccc(O)c(OC)c2)ccc1O [Curcumin] | 9.50 ± 0.21

Same assay, conditions: 0.5 μg DHT alone topically daily, 18 days; mean±SEM

Row | SMILES | Pigmented macule area, androgen alone (control)
20 | C[C@]12CCC(=O)C[C@@H]1CC[C@@H]1[C@@H]2CC[C@]2(C)[C@@H](O)CC[C@@H]12 [DHT, 5α-dihydrotestosterone, reference compound] | 20.80 ± 1.10 mm^2 and 13.67 ± 0.96 mm^2

Same assay, conditions: 0.5 μg DHT per flank organ per day

Row | SMILES | stimulation of flank organ growth relative to the maximum stimulation
21 | C[C@]12CCC(=O)C[C@@H]1CC[C@@H]1[C@@H]2CC[C@]2(C)[C@@H](O)CC[C@@H]12 [DHT, 5α-dihydrotestosterone, reference compound] | 50-70%

Molecular target: T1, type 1 human 5α-reductase (Homo sapiens, UniProt P18405)
T1 sequence (P18405 1-259): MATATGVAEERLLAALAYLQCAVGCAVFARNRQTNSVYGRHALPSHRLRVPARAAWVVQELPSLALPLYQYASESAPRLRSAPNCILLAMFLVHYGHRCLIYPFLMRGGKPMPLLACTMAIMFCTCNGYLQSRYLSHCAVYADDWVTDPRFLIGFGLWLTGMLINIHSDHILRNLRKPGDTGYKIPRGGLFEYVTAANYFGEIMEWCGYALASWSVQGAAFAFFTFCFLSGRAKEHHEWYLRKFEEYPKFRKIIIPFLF
Test: Cell-free enzymatic assay of 5α-reductase (testosterone to DHT), type 1
Conditions: not given

Row | SMILES | IC50 [µM]
22 | CC/C=C\C/C=C\C/C=C\CCCCCCCC(=O)O [Alpha-Linolenic Acid, Alpha-Linolenic Acid C18:3 CIS 9,12,15] | 8
23 | CC(Cc1ccc(O)c(O)c1)C(C)Cc1ccc(O)c(O)c1 (centres unmarked) [Nordihydroguaiaretic acid] | 19

Same assay, conditions: read-out: percent inhibition of 5α-reductase activity, cell-free assay, Type 1, 100 μM compound

Row | SMILES | inhibition at 100 µM [%]
24 | CC/C=C\C/C=C\C/C=C\CCCCCCCC(=O)O [Alpha-Linolenic Acid, Alpha-Linolenic Acid C18:3 CIS 9,12,15] | 99
25 | O=C(/C=C/c1ccc(O)c(O)c1)OCCc1ccccc1 [Caffeic acid phenethyl ester] | 97
26 | O=c1ccc2cc(O)c(O)cc2o1 [Esculetin, 6,7-dihydroxycoumarin] | 7
27 | COc1cc2ccc(=O)oc2c(O)c1O [Fraxetin, 7,8-dihydroxy-6-methoxycoumarin] | 2

Molecular target: T2, type 2 human 5α-reductase (Homo sapiens, UniProt P31213)
T2 sequence (P31213 1-254): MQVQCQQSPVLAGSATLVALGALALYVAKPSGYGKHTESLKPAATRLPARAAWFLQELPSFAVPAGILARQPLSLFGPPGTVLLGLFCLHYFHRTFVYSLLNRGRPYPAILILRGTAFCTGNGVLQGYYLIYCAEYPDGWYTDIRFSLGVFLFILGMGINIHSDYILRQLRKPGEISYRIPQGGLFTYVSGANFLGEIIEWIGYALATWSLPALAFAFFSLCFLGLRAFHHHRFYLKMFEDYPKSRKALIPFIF
Test: Cell-free enzymatic assay of 5α-reductase (testosterone to DHT), type 2
Type: biochemical
Set-up: expressed in transfected cells; host or cells: rat 1A cells infected with pMV7 retrovirus and selected with G418; microsomes for the cell-free assay
Conditions: microsomes from rat 1A cells expressing human type 2 5α-reductase; read-out: Cell-free assay IC50, 5α-reductase Type 2

Row | SMILES | IC50 [µM]
28 | CC/C=C\C/C=C\C/C=C\CCCCCCCC(=O)O [Alpha-Linolenic Acid, Alpha-Linolenic Acid C18:3 CIS 9,12,15] | 9

Same assay, conditions: read-out: percent inhibition of 5α-reductase activity, cell-free assay, Type 2, 100 μM compound

Row | SMILES | inhibition at 100 µM [%]
29 | CC/C=C\C/C=C\C/C=C\CCCCCCCC(=O)O [Alpha-Linolenic Acid, Alpha-Linolenic Acid C18:3 CIS 9,12,15] | 84
30 | O=C(/C=C/c1ccc(O)c(O)c1)OCCc1ccccc1 [Caffeic acid phenethyl ester] | 36
31 | O=c1ccc2cc(O)c(O)cc2o1 [Esculetin, 6,7-dihydroxycoumarin] | 13
32 | COc1cc2ccc(=O)oc2c(O)c1O [Fraxetin, 7,8-dihydroxy-6-methoxycoumarin] | 8
33 | CC(Cc1ccc(O)c(O)c1)C(C)Cc1ccc(O)c(O)c1 (centres unmarked) [Nordihydroguaiaretic acid] | 80

Molecular target: T2, type 2 human 5α-reductase
Test: Whole-cell assay of 5α-reductase, type 2
Type: cell-based
Set-up: expressed in transfected cells; host or cells: rat 1A cells infected with pMV7 retrovirus and selected with G418; intact cells for the whole-cell assay
Conditions: rat 1A cells expressing human type 2 5α-reductase

Row | SMILES | IC50 [µM]
34 | CC/C=C\C/C=C\C/C=C\CCCCCCCC(=O)O [Alpha-Linolenic Acid, Alpha-Linolenic Acid C18:3 CIS 9,12,15] | 23
35 | CCCC/C=C\CCCCCCCC(=O)O[C@@H]1Cc2c(O)cc(O)cc2O[C@@H]1c1cc(O)c(O)c(O)c1 [EGC-myristoleate, EGC-3-myristoleate] | < 15
36 | CCCCC/C=C\C/C=C\C/C=C\CCCCC(=O)O[C@@H]1Cc2c(O)cc(O)cc2O[C@@H]1c1cc(O)c(O)c(O)c1 [EGC-γ-linoleneate acid, EGC-γ-linoleneate] | < 15

Same assay, conditions: read-out: percent inhibition of 5α-reductase activity, whole-cell assay, Type 2; 100 μM compound

Row | SMILES | inhibition at 100 µM [%]
37 | CC/C=C\C/C=C\C/C=C\CCCCCCCC(=O)O [Alpha-Linolenic Acid, Alpha-Linolenic Acid C18:3 CIS 9,12,15] | 86
38 | O=C(/C=C/c1ccc(O)c(O)c1)OCCc1ccccc1 [Caffeic acid phenethyl ester] | 98

Molecular target: T1, type 1 human 5α-reductase
Test: Whole-cell assay of 5α-reductase, type 1
Type: cell-based
Set-up: expressed in transfected cells; host or cells: rat 1A cells infected with pMV7 retrovirus and selected with G418; microsomes for the cell-free assay, intact cells for the whole-cell assay
Conditions: rat 1A cells expressing human type 1 5α-reductase

Row | SMILES | IC50 [µM]
39 | CC/C=C\C/C=C\C/C=C\CCCCCCCC(=O)O [Alpha-Linolenic Acid, Alpha-Linolenic Acid C18:3 CIS 9,12,15] | 29
40 | CCCC/C=C\CCCCCCCC(=O)O[C@@H]1Cc2c(O)cc(O)cc2O[C@@H]1c1cc(O)c(O)c(O)c1 [EGC-myristoleate, EGC-3-myristoleate] | < 15
41 | CCCCC/C=C\C/C=C\C/C=C\CCCCC(=O)O[C@@H]1Cc2c(O)cc(O)cc2O[C@@H]1c1cc(O)c(O)c(O)c1 [EGC-γ-linoleneate acid, EGC-γ-linoleneate] | < 15
42 | CC(Cc1ccc(O)c(O)c1)C(C)Cc1ccc(O)c(O)c1 (centres unmarked) [Nordihydroguaiaretic acid] | 19

Same assay, conditions: read-out: percent inhibition of 5α-reductase activity, whole-cell assay, Type 1; 100 μM compound

Row | SMILES | inhibition at 100 µM [%]
43 | CC/C=C\C/C=C\C/C=C\CCCCCCCC(=O)O [Alpha-Linolenic Acid, Alpha-Linolenic Acid C18:3 CIS 9,12,15] | 82
44 | O=C(/C=C/c1ccc(O)c(O)c1)OCCc1ccccc1 [Caffeic acid phenethyl ester] | 99
